Experimental data taken from patent US20230279020A9, “CARM1 INHIBITORS AND USES THEREOF” (Epizyme, Inc., priority 2013, published 2023).

Target: Human CARM1 (PRMT4) (Homo sapiens (Human), UniProt Q86X55)
Assay: CARM1 enzyme assay on peptide substrate (3H-SAM Flashplate)
Conditions: Biochemical potencies, classification codes; read-out: Biochem IC50

Chain of Human CARM1 (PRMT4) (Q86X55 other isoform, or with tags, fused parts or gaps isoform Q86X55-1): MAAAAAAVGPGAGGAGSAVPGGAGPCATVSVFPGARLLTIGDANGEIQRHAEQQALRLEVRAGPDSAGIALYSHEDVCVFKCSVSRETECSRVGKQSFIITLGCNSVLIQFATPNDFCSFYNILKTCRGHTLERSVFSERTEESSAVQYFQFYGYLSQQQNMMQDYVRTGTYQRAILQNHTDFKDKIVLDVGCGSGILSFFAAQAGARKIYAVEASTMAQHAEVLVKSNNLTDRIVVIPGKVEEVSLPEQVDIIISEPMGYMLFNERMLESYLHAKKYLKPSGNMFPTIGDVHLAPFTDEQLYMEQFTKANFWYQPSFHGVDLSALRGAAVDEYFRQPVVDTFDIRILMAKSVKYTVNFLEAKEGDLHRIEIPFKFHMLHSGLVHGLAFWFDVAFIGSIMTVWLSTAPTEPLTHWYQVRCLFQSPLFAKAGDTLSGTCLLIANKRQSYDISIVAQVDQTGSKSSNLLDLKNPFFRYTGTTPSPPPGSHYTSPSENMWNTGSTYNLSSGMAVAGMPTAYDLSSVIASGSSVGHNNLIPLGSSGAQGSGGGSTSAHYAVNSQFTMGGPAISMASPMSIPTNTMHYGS

| Compound | IC50 |
| --- | --- |
| CNCC(O)COc1cccc(-c2nc(-c3ccc(N4CCOCC4)nn3)cc(N(C)C3CCOCC3)n2)c1 (centres unmarked) [Example 512-1a] | < 100 nM |
| CNCC(O)COc1cccc(-c2nc(Nc3ncc(C)cn3)cc(N(C)C3CCOCC3)n2)c1 (centres unmarked) [Example 513-1a] | < 100 nM |
| CNCC(O)COc1cccc(-c2nc(-c3cnn(CC(C)C)c3)cc(N(C)C3CCOCC3)n2)c1 (centres unmarked) [Example 516-1a] | < 100 nM |
| CNCC(O)COc1cccc(-c2nc(-c3nc(C)cn3C)cc(N(C)C3CCOCC3)n2)c1 (centres unmarked) [Example 519-1a] | < 100 nM |
| CNCC(O)COc1cc(Cl)cc(-c2nc(-c3ccncc3C3CC3)cc(N(C)C3CCOCC3)n2)c1 (centres unmarked) [Example 522-1a] | < 100 nM |
| CNCC(O)COc1cccc(-c2nc(N3CCO[C@H](CN)C3)cc(N(C)C3CCOCC3)n2)c1 (some centres unmarked) [Example 524-1a] | < 100 nM |
| CNC[C@@H](O)COc1cccc(-c2nc(-c3c[nH]c4ncncc34)c(C)c(N(C)C3CCOCC3)n2)c1 [Example 526-1a] | < 100 nM |
| CNCC(O)COc1cccc(-c2nc(-c3cn(C)c(C)n3)cc(N(C)C3CCOCC3)n2)c1 (centres unmarked) [Example 529-1a] | < 100 nM |
| CNCC(O)COc1cccc(-c2nc(-c3cnc4ncnn4c3)cc(N(C)C3CCOCC3)n2)c1 (centres unmarked) [Example 536-1a] | < 100 nM |
| CNCC(O)COc1cccc(-c2nc(-c3ccncc3)c(C)c(N(C)C3CCOCC3)n2)c1 (centres unmarked) [Example 537-1a] | < 100 nM |
| CNCC(O)COc1cccc(-c2nc(N3CCC[C@H](O)C3)cc(N(C)C3CCOCC3)n2)c1 (some centres unmarked) [Example 538-1a] | < 100 nM |
| CNCC(O)COc1cccc(-c2nc(N(C)C3CCOCC3)cc(-n3cccn3)n2)c1 (centres unmarked) [Example 542-1a] | < 100 nM |
| CNCC(O)COc1cccc(-c2nc(N(C)C3CCOCC3)cc(N3C[C@@H]4C[C@H]3CN4C)n2)c1 (some centres unmarked) [Example 543-1a] | < 100 nM |
| CNCC(O)COc1cccc(-c2nc(C(C)=O)c(C)c(N(C)C3CCOCC3)n2)c1 (centres unmarked) [Example 544-1a] | < 100 nM |
| CNCC(O)COc1cccc(-c2nc(C(=O)NCC3CCOCC3)cc(N(C)C3CCOCC3)n2)c1 (centres unmarked) [Example 548-1a] | < 100 nM |
| CNCC(O)COc1cccc(-c2nc(N3CC4(CCNCC4)c4ccccc43)cc(N(C)C3CCOCC3)n2)c1 (centres unmarked) [Example 559-1a] | < 100 nM |
| CNCC(O)COc1cc(Cl)cc(-c2nc(-c3cnc4ccccn34)c(C)c(N(C)C3CCOCC3)n2)c1 (centres unmarked) [Example 561-1a] | < 100 nM |

| Compound | IC50 |
| --- | --- |
| CNCC(O)COc1cccc(-c2nc(-c3cnc4n3CCNC4)cc(N(C)C3CCOCC3)n2)c1 (centres unmarked) [Example 563-1a] | < 100 nM |
| CCOC(=O)c1sc(-c2cc(N(C)C3CCOCC3)nc(-c3cccc(OCC(O)CNC)c3)n2)nc1C (centres unmarked) [Example 565-1a] | < 100 nM |
| CNCC(O)COc1cccc(-c2nc(N3CC4CCC(C3)O4)cc(N(C)C3CCOCC3)n2)c1 (centres unmarked) [Example 566-1a] | < 100 nM |
| CNCC(O)COc1cccc(-c2nc(N(C)C3CCOCC3)c(C)c(N3CCNC[C@@H]3C)n2)c1 (some centres unmarked) [Example 567-1a] | < 100 nM |
| CNCC(O)COc1cccc(-c2nc(-c3cc4ccccc4o3)cc(N(C)C3CCOCC3)n2)c1 (centres unmarked) [Example 570-1a] | < 100 nM |
| CNCC(O)COc1cccc(-c2nc(N3CCNC(=O)C3)cc(N(C)C3CCOCC3)n2)c1 (centres unmarked) [Example 575-1a] | < 100 nM |
| CNCC(O)COc1cccc(-c2nc(N3CCN4C(=O)OC[C@@H]4C3)cc(N(C)C3CCOCC3)n2)c1 (some centres unmarked) [Example 576-1a] | < 100 nM |
| CNCC(O)COc1cccc(-c2nc(N3CCN(CCF)[C@@H](C)C3)cc(N(C)C3CCOCC3)n2)c1 (some centres unmarked) [Example 578-1a] | < 100 nM |
| CNCC(O)COc1cccc(-c2nc(N3CCC4(CCO4)CC3)cc(N(C)C3CCOCC3)n2)c1 (centres unmarked) [Example 579-1a] | < 100 nM |
| CNCC(O)COc1cccc(-c2nc(N3CCN(C(=O)OC)[C@@H](C)C3)cc(N(C)C3CCOCC3)n2)c1 (some centres unmarked) [Example 581-1a] | < 100 nM |
| CNCC(O)COc1cc(Cl)cc(-c2nc(-c3ccnc(N(C)C)c3)cc(N(C)C3CCOCC3)n2)c1 (centres unmarked) [Example 609-1a] | < 100 nM |
| CNCC(O)COc1cc(Cl)cc(-c2nc(-c3cnn(C)c3)cc(N(C)C3CCOCC3)n2)c1 (centres unmarked) [Example 610-1a] | < 100 nM |
| CNCC(O)COc1cc(Cl)cc(-c2nc(-c3ccncc3)c(Br)c(N(C)C3CCOCC3)n2)c1 (centres unmarked) [Example 611-1a] | < 100 nM |
| CNCC(O)COc1cc(Cl)cc(-c2nc(-c3cnc4ccccc4n3)c(C)c(N(C)C3CCOCC3)n2)c1 (centres unmarked) [Example 612-1a] | < 100 nM |
| CNCC(O)COc1cccc(-c2nc(-c3ccc(C(F)(F)F)nc3)cc(N(C)C3CCOCC3)n2)c1 (centres unmarked) [Example 613-1a] | < 100 nM |
| CNCC(O)COc1cccc(-c2nc(C3CCNCC3)cc(N(C)C3CCOCC3)n2)c1 (centres unmarked) [Example 615-1a] | < 100 nM |

The remaining lines, values ahead:

| IC50 | Compound |
| --- | --- |
| < 100 nM | CNCC(O)COc1cccc(-c2nc(-c3cnc4c(C(=O)N(C)C)cnn4c3)cc(N(C)C3CCOCC3)n2)c1 (centres unmarked) [Example 514-1a] |
| < 100 nM | CNCC(O)COc1cccc(-c2nc(-c3cnc(C)n3C)cc(N(C)C3CCOCC3)n2)c1 (centres unmarked) [Example 517-1a] |
| < 100 nM | CNCC(O)COc1cccc(-c2nc(-c3nc(C)c[nH]3)cc(N(C)C3CCOCC3)n2)c1 (centres unmarked) [Example 521-1a] |
| < 100 nM | CNCC(O)COc1cccc(-c2nc(-c3cncnc3)cc(N(C)C3CCOCC3)n2)c1 (centres unmarked) [Example 525-1a] |
| < 100 nM | CNCC(O)COc1cccc(-c2nc(-c3c(C)nn(C)c3C)cc(N(C)C3CCOCC3)n2)c1 (centres unmarked) [Example 528-1a] |
| < 100 nM | CNCC(O)COc1cccc(-c2nc(N3CCN(C)CC3)cc(N(C)C3CCOCC3)n2)c1 (centres unmarked) [Example 531-1a] |
| < 100 nM | CNCC(O)COc1cccc(-c2nc(-c3ccnc(OC)c3)cc(N(C)C3CCOCC3)n2)c1 (centres unmarked) [Example 541-1a] |
| < 100 nM | CNCC(O)COc1cccc(-c2nc(N3CCN(C)C(=O)C3)cc(N(C)C3CCOCC3)n2)c1 (centres unmarked) [Example 549-1a] |
| < 100 nM | CNCC(O)COc1cccc(-c2nc(N3CCNCC3)c(C)c(N(C)C3CCOCC3)n2)c1 (centres unmarked) [Example 560-1a] |
| < 100 nM | CNCC(O)COc1cccc(-c2nc(N(C)C3CCOCC3)cc(N3C[C@H]4C[C@@H]3CN4)n2)c1 (some centres unmarked) [Example 562-1a] |
| < 100 nM | CNCC(O)COc1cccc(-c2nc(-c3cnc4ccnn4c3)cc(N(C)C3CCOCC3)n2)c1 (centres unmarked) [Example 564-1a] |
| < 100 nM | CNCC(O)COc1cccc(-c2nc(N(C)C3CCOCC3)cc(-n3nc(C)cc3C)n2)c1 (centres unmarked) [Example 568-1a] |
| < 100 nM | CNCC(O)COc1cccc(-c2nc(-c3sc(C)nc3C)cc(N(C)C3CCOCC3)n2)c1 (centres unmarked) [Example 569-1a] |
| < 100 nM | CNC[C@@H](O)COc1cccc(-c2nc(-c3c[nH]c4ncncc34)cc(N(C)C3CCOCC3)n2)c1 [Example 571-1a] |
| < 100 nM | CNCC(O)COc1cccc(-c2nc(-c3cnc(CO)n3C)cc(N(C)C3CCOCC3)n2)c1 (centres unmarked) [Example 572-1a] |
| < 100 nM | CNCC(O)COc1cccc(-c2nc(SC)cc(N(C)C3CCOCC3)n2)c1 (centres unmarked) [Example 573-1a] |
| < 100 nM | CNCC(O)COc1cc(Cl)cc(-c2nc(-c3ccncc3)c(C3CC3)c(N(C)C3CCOCC3)n2)c1 (centres unmarked) [Example 574-1a] |
| < 100 nM | CNCC(O)COc1cc(Cl)cc(-c2nc(C(=O)N(C)CC3CCOCC3)cc(N(C)C3CCOCC3)n2)c1 (centres unmarked) [Example 577-1a] |
| < 100 nM | CNCC(O)COc1cccc(-c2nc(-c3cncn3C)cc(N(C)C3CCOCC3)n2)c1 (centres unmarked) [Example 580-1a] |
| < 100 nM | CNCC(O)COc1cc(Cl)cc(-c2nc(-c3ccc(N(C)C)nc3)c(C)c(N(C)C3CCOCC3)n2)c1 (centres unmarked) [Example 614-1a] |
